In ChEMBL document CHEMBL1135866, “Photochemical preparation of a pyridone containing tetracycle: a Jak protein kinase inhibitor” (Bioorg Med Chem Lett, 2002):

Legend:
[1] = Inhibition of IL-2 induced JAK-1/JAK-3-associated murine T cell lymphoma cell proliferation; type: functional, cell-based; details: Mus musculus
[2] = Inhibition of IL-4 induced JAK-1/JAK-3 associated murine T cell lymphoma cell proliferation; type: functional, cell-based; details: Mus musculus
CTLL = experiment: Inhibition of PMA-induced murine T cell lymphoma cell proliferation; type: functional, cell-based; details: Mus musculus
[3] = target: Cyclin-dependent kinase 2 (Homo sapiens, UniProt P24941); experiment: Inhibition of cyclin dependent kinase 2
[4] = target: Fibroblast growth factor receptor 2 (Homo sapiens, UniProt P21802); experiment: Inhibition of Fibroblast growth factor receptor 2
[5] = target: Tyrosine-protein kinase HCK (Homo sapiens, UniProt P08631); experiment: Inhibition of protein kinase Hck
[6] = target: T1, Inhibitor of nuclear factor kappa-B kinase subunit beta (Homo sapiens, UniProt O14920); experiment: Inhibition of I-kappa-B kinase 2
T1 sequence (O14920 whole entry): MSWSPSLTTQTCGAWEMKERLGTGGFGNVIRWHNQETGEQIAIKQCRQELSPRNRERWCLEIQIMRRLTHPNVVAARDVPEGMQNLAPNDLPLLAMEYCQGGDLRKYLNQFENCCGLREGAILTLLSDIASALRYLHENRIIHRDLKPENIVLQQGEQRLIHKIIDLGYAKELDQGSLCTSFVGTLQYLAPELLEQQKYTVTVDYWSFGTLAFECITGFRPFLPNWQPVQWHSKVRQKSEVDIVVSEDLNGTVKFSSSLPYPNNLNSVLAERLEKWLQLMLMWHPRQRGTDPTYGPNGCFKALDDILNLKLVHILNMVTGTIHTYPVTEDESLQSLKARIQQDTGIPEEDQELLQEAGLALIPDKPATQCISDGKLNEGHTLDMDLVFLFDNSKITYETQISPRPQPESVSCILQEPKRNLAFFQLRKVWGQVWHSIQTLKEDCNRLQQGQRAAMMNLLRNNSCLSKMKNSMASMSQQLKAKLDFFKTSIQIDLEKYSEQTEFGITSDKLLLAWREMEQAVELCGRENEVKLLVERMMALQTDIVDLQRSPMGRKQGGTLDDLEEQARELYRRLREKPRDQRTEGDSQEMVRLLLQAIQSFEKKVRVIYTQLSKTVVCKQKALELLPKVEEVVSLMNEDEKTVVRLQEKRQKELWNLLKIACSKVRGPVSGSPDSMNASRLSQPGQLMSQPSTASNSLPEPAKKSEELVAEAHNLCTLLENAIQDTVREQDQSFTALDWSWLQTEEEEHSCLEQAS

[7] = target: Protein kinase C alpha type (Homo sapiens, UniProt P17252); experiment: Inhibition of protein kinase C alpha
Angiopoietin-1 receptor = Angiopoietin-1 receptor (Homo sapiens, UniProt Q02763); experiment: Inhibition of Tek kinase
[8] = target: Vascular endothelial growth factor receptor 3 (Homo sapiens, UniProt P35916); experiment: Inhibition of Vascular endothelial growth factor receptor 3
[9] = target: RAF proto-oncogene serine/threonine-protein kinase (Homo sapiens, UniProt P04049); experiment: Inhibition of protein kinase Raf
[10] = Inhibition of protein kinase cAMP-dependent protein kinase

Sequence of Vascular endothelial growth factor receptor 3 (P35916 whole entry): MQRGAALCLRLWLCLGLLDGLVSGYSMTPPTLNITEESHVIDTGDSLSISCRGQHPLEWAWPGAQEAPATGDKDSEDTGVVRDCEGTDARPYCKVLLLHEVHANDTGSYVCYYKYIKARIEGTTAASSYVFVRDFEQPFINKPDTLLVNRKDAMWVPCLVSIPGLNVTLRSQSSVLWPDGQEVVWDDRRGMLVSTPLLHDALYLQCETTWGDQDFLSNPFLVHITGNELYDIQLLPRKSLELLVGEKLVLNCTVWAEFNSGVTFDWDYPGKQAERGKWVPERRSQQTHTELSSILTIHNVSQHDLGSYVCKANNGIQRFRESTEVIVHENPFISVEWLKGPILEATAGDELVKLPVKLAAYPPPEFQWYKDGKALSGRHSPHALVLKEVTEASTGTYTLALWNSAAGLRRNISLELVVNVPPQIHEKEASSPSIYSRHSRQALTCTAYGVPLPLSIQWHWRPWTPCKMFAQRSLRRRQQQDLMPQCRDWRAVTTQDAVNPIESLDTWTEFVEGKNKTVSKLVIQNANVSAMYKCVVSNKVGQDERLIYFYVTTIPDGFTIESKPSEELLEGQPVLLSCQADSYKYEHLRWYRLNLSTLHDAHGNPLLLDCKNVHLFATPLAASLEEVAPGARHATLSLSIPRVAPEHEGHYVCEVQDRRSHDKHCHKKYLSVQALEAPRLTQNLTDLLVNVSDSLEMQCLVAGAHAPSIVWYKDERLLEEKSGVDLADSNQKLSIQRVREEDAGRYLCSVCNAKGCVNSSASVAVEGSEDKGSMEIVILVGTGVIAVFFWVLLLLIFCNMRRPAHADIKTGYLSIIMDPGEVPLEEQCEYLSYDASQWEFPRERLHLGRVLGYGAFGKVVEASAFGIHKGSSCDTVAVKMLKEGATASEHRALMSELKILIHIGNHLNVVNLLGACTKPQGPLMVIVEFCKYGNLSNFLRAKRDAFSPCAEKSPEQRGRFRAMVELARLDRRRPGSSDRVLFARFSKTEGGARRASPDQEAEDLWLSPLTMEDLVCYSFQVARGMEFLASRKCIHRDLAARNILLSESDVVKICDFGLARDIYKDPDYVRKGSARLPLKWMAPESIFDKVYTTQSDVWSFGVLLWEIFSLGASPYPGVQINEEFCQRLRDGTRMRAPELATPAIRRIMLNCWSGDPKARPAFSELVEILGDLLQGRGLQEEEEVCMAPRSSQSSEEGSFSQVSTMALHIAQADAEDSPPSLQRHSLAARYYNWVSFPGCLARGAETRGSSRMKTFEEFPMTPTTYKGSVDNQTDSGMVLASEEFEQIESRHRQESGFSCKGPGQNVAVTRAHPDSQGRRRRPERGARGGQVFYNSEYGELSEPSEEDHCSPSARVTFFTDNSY
Sequence of Tyrosine-protein kinase HCK (P08631 whole entry): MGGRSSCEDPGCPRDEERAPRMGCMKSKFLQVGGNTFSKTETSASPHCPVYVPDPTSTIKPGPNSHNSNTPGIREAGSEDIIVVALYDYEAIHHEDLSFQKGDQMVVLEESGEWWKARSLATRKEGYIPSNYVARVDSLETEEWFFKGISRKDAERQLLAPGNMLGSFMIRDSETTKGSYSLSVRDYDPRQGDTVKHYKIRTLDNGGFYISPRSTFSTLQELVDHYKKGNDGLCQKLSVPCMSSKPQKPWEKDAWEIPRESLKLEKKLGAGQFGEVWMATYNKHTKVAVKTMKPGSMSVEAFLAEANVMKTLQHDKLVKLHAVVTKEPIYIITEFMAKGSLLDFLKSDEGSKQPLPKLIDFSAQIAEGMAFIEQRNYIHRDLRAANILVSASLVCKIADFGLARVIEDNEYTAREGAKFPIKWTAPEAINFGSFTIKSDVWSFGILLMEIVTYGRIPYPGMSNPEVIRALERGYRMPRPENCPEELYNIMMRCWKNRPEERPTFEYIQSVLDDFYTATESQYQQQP
Sequence of Fibroblast growth factor receptor 2 (P21802 whole entry): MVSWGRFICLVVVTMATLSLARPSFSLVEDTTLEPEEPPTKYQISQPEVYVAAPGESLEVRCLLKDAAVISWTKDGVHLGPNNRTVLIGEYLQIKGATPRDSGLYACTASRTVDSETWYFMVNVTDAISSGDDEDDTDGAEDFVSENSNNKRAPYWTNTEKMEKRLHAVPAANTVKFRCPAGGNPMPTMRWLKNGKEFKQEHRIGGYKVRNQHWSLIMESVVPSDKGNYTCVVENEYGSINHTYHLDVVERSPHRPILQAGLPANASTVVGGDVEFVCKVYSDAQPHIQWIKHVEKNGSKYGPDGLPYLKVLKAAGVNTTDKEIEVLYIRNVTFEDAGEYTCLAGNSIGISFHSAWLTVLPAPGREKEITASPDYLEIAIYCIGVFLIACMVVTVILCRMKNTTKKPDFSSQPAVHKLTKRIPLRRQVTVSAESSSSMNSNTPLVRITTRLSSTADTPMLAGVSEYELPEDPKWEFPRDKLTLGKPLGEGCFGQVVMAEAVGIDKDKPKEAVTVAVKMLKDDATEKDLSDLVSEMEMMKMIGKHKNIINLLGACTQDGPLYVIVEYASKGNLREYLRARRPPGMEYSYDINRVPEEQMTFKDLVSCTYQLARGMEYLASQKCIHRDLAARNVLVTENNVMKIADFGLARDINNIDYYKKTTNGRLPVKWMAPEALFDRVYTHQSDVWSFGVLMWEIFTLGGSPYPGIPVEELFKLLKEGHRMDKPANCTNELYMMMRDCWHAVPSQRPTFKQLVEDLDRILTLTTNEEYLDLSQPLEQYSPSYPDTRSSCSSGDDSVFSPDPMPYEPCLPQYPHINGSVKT
Sequence of RAF proto-oncogene serine/threonine-protein kinase (P04049 whole entry): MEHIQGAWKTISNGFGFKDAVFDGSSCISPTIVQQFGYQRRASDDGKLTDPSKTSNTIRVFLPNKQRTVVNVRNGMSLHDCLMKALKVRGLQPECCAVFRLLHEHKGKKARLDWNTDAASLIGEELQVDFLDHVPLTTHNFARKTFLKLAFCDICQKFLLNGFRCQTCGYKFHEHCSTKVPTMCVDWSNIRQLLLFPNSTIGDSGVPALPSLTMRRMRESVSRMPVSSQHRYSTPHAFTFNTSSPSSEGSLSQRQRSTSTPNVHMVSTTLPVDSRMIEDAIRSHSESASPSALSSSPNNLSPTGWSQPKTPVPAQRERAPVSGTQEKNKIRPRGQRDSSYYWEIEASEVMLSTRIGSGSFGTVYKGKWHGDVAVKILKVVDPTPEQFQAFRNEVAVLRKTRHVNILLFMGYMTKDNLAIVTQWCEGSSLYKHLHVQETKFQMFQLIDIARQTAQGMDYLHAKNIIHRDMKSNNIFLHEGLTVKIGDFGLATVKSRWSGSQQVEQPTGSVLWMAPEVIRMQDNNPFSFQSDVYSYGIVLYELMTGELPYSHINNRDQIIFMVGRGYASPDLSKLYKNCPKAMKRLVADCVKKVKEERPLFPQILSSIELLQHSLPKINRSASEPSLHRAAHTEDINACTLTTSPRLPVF
Sequence of Angiopoietin-1 receptor (Q02763 whole entry): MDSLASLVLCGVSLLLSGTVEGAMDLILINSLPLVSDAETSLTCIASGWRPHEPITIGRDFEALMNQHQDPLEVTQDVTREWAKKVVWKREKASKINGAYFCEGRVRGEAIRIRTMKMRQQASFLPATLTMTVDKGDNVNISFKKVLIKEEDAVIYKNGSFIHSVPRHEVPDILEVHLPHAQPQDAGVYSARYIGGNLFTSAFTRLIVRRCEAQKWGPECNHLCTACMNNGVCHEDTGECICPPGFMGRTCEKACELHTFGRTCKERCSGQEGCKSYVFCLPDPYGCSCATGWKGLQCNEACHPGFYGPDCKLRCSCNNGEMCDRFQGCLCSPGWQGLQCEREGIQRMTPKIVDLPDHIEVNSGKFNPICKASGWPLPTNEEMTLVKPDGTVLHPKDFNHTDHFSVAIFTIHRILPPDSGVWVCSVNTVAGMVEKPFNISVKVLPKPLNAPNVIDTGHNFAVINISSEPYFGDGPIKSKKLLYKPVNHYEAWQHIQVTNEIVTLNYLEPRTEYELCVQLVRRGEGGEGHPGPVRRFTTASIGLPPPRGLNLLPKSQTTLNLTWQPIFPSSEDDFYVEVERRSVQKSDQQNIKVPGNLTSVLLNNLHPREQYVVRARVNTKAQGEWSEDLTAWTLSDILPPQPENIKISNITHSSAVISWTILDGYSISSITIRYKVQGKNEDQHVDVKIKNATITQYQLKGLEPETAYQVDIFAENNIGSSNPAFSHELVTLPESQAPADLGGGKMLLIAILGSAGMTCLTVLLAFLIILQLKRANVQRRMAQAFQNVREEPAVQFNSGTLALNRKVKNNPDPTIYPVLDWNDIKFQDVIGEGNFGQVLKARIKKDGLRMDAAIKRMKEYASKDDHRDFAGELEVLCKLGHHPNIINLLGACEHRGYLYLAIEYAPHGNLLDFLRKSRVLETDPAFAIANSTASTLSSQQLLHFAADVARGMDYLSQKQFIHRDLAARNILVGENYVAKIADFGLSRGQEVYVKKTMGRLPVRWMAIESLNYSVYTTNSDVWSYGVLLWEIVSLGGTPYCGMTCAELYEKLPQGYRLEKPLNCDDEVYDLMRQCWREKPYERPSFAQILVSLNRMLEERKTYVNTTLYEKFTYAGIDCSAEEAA

Question: Which IC50 [1] does the source give for CC(C)(C)c1nc2c3ccc(F)cc3c3c(=O)[nH]ccc3c2[nH]1 here?
Answer: The IC50 was 100 nM.

Question: What about the IC50 [2] of the same compound?
Answer: The IC50 was 52 nM.

Question: And the IC50 (CTLL)?
Answer: The IC50 was 3100 nM.

Question: And the IC50 [3]?
Answer: Its IC50 is 3300 nM.

Question: What about the IC50 [4] of the same compound?
Answer: Its IC50 is 940 nM.

Question: And the IC50 [5]?
Answer: Its IC50 is 7700 nM.

Question: And the IC50 [6]?
Answer: Its IC50 is 300 nM.

Question: And the IC50 [7]?
Answer: The IC50 was 1200 nM.

Question: And the IC50 (Angiopoietin-1 receptor)?
Answer: Its IC50 is 24000 nM.

Question: And the IC50 [8]?
Answer: Its IC50 is 690 nM.

Question: What about the IC50 [9] of the same compound?
Answer: The IC50 was > 10000 nM.

Question: What about the IC50 [10] of the same compound?
Answer: Its IC50 is 7100 nM.
